Laboratory results from patent publication US20030211605A1, “Derivation of midbrain dopaminergic neurons from embryonic stem cells” (priority 2003, published 2003).

Tests used:
Type in all cases: cell-based, mouse
ES cells [1] = test: Yield of TH+ neurons (TH/TUJ1 immunocytochemistry) in differentiated ES cell cultures; details: SHH 500 ng/ml, FGF8 100 ng/ml, cAMP 1 mM, ascorbic acid 200 μM, added at different stages; FIG. 4
Description: Specifically, the cells were dissociated by adding a solution of 0.05% typsin and 0.04% EDTA to the plates and incubating at 37° C. for 5 minutes. The dissociated cells were plated on tissue culture plastic or glass coverslips at a concentration of 1.5-2×10^6 cm^2 in serum free N2 medium supplemented with 1 μg/ml of laminin and 10 ng/ml of basic fibroblast growth factor (bFGF, R&D Systems, Minneapolis, Minn.). The medium was also supplemented with murine aminoterminal fragment SHH (500 ng/ml); murine FGF8 isoform b (100 ng/ml, both from R& D System); and ascorbic acid (200 μM, Sigma). Control cultures were treated identically except that no SHH or FGF8 was applied during cell proliferation.
Differentiation (stage 5) was induced using a modification of Okabe et al., using N2 medium instead of N3FL medium. […]
Uniform random sampling procedure were used for cell counts and quantified using the fractionator technique (Gundersen et al., (1988) “Some new, simple and efficient stereological methods and their use in pathological research and diagnosis,” APIMS 96:379-394). […] Data expressed as mean±SEM.
Yield of TH+ neurons is expressed as a percentage of all TUJ1+ neurons.

ES-derived neuron = test: Patch clamp recording of synaptic activity of differentiated ES-derived neurons; details: 10 mM, pressure application; 13 days of differentiation; FIG. 9B/9C
ES cells [2] = test: Comparison of N2 and N3FL media: total, TUJ1+ and TH+ cells after differentiation; details: for phenotype of the ES cell derived population: variation of concentration in the medium

Row | Compound | response to application to the dendrites of a differentiated neuron (ES-derived neuron) | phenotype of the ES cell derived population (ES cells [2]) | other results
1 | O=C1O[C@H]([C@@H](O)CO)C(O)=C1O [ascorbic acid] |  |  | yield of TH+ neurons (percentage of all TUJ1+ neurons) (ES cells [1]): increase the yield of TH+ neurons
2 | N[C@@H](CCC(=O)O)C(=O)O [glutamate] | inward current |  | 
3 | transferrin |  | did not significantly affect | 
4 | O=S(=O)(O)CCN1CCN(CCO)CC1 [HEPES, 4-(2-hydroxyethyl)-1-piperazine-ethanesulfonic acid] |  |  | percentage of TUJ1 and TH+ cells (ES cells [2]; substitution of bicarbonate (N2) by HEPES (N3FL), FIG. 8): dramatically reduced
5 | NC(=O)CC[C@H](N)C(=O)O [glutamine] |  | did not significantly affect | 
6 | NCCCC(=O)O [GABA, gamma amino butyric acid] | inward current |  | 
